The subject of assay [1] is angiogenesis in human fat tissue. In words: human fat tissue angiogenesis assay (substance added to the media). It counts as cell-based. As for the experimental part: The above extracts of platycodin, both PS and PD, were assayed for antiangiogenic activity using the human fat angiogenesis assay of Greenway et al. (2007).
Study 1: An aqueous extract of Platycodi radix saponins at 1% w/v was tested in our human adipose tissue assay. Briefly, subcutaneous adipose tissue was removed from patients undergoing cosmetic surgical procedures. The fat was placed directly into sterile assay media, transported directly to the laboratory from the surgery suite in the sterile container and processed under a laminar flow hood. The tissue was cut into fragments approximately 1 mm thick and 2 mm in diameter. These fragments were placed in 96-well plates containing a 4 μL human thrombin solution (0.05 IU in 4 μL per well) and covered with 100 μL clotting media (3 mg/mL fibrinogen; Sigma Chemical Co., St Louis, Mo., USA), 0.5% ε-amino caproic acid (Sigma Chemical Co.) in angiogenesis media containing 100 U/mL penicillin, 100 U/mL streptomycin sulfate and 2.5 μg/mL amphotericin β in Medium 199 (Gibco BRL, Gaithersburg, Md., USA). The mixture was allowed to clot by incubation in 6% CO2 at 37° C. in a humidified incubator. After the media had gelled overnight, the fat-containing clot was supplemented with 100 μL angiogenesis media containing 20% fetal bovine serum (Gibco BRL). The total volume of each well was 200 μL. There were 30 replicates for the 1% w/v Platycodi radix saponins and the media control. The angiogenesis media were replaced every 48 h and appropriate concentrations of fresh Platycodi radix saponins or media control were added. Wells were evaluated for the angiogenic response as described by Greenway et al. (2007). An observer unbiased to the treatment protocols evaluated the angiogenic response using a semi-quantitative visual rating scale. Briefly, the tissue was viewed under an inverted microscope, visually divided into four quadrants and each quadrant was given a numeric score from 0 to 4 based on the neovessels' length, density, and percentage of the quadrants' circumference involved with the angiogenic response. Numeric results from the four quadrants were summed and expressed as an angiogenic index ranging from 0 (no neovessels apparent in any quadrant) to 16 (highly vascularized in all four quadrants). The extract of Platycodi radix saponins at 1% w/v was tested, followed by Platycodin D, and finally by the Platycodi radix saponins standardized to the Platycodin D content.

The target of another assay is T1, pancreatic lipase (Homo sapiens, UniProt P16233).
T1 sequence (P16233 17-465): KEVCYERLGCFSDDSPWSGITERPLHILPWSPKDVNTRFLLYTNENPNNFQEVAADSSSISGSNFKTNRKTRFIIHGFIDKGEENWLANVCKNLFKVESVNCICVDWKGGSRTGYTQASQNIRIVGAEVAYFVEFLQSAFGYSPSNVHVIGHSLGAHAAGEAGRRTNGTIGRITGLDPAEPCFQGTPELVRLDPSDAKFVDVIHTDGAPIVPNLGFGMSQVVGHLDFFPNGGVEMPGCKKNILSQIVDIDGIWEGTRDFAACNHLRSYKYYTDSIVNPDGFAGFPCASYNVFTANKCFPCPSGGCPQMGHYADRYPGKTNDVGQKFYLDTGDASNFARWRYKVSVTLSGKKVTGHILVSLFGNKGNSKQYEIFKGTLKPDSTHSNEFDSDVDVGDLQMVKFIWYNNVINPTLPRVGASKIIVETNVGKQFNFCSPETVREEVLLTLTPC
To be noted: cited from earlier work.

SMILES strings stand for the structures. “Also recorded” adds a separate entry of the source.

In the case of `C[C@@H]1O[C@@H](O[C@H]2[C@H](OC(=O)[C@]34CCC(C)(C)C[C@H]3C3=CC[C@@H]5[C@@]6(C)C[C@H](O)[C@H](O[C@@H]7O[C@H](CO)[C@@H](O)[C@H](O)[C@H]7O)C(CO)(CO)[C@@H]6CC[C@@]5(C)[C@]3(C)C[C@H]4O)OC[C@H](O)[C@@H]2O)[C@H](O)[C@H](O)[C@H]1O[C@@H]1OC[C@@H](O)[C@H](O[C@@H]2OC[C@](O)(CO)[C@H]2O)[C@H]1O` [PD, platycodin D], the “inhibition of angiogenesis (angiogenic index)” value in assay [1] (10^-4 M (concentration of platycodin D) and higher) is “complete inhibition of angiogenesis”. Besides, the inhibition of angiogenesis result in assay [1] (10^-5 M, difference not statistically significant) is reported as “partial inhibition”; in assay [1] (concentration not given), “inhibited angiogenesis; also recorded: inhibitors of angiogenesis”; in assay [1] (concentrations above 10^-4 M) it was “totally inhibited angiogenesis”; in assay [1] (concentrations below 10^-4 M), “did not inhibit angiogenesis”. At pancreatic lipase, the “inhibition of pancreatic lipase” value was “inhibit pancreatic lipase”.
